Data published in PubChem BioAssay (NCI).
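Following 48 hours of exposure in 96-well plates, responses at five concentrations were used to interpolate endpoints linearly. GI50 marks 50% less growth. TGI marks complete inhibition of growth.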

Key:
Test in all cases: growth of human tumour cells (NCI), 48 h
[1] = tested on: UACC-257 melanoma
[2] = tested on: A549 NSCLC
[3] = tested on: CAKI-1 renal
[4] = tested on: M14 melanoma
[5] = tested on: ACHN renal
[6] = tested on: SR leukemia
[7] = tested on: SK-MEL-5 melanoma
[8] = tested on: HL-60(TB) leukemia
[9] = tested on: UO-31 renal
[10] = tested on: HCC-2998 colon

Compound	TGI [1] [µM]	TGI [2] [µM]	TGI [3] [µM]	TGI [4] [µM]	TGI [5] [µM]	TGI [6] [µM]	TGI [7] [µM]	TGI [8] [µM]	TGI [9] [µM]	TGI [10] [µM]	GI50 [1] [µM]	GI50 [2] [µM]	GI50 [4] [µM]	GI50 [9] [µM]	GI50 [5] [µM]	GI50 [6] [µM]	GI50 [7] [µM]	GI50 [10] [µM]	GI50 [8] [µM]	GI50 [3] [µM]
NCc1nnn(Cc2ccccc2)c1N	> 100	> 100	> 100	> 100	> 100	> 100	> 100	> 100												
Nc1nc2nc[nH]c2c(=O)[nH]1	> 100	> 100	> 100	> 100	> 100	> 100	> 100	> 100	> 100											
O=C(/C=C\c1ccc(Cl)cc1Cl)c1cccs1	36.4	> 100	80.4	35.1	27.9	> 100	29.9	> 100	25											
COc1ccc(/C=C2\CCC(C)(CN(C)C)C2=O)cc1 (centres undefined)	> 100	> 100	> 100	> 100	> 100		> 100	> 100	> 100	> 100										
C1=Cc2nc1c(-c1ccncc1)c1ccc([n-]1)c(-c1ccncc1)c1nc(c(-c3ccncc3)c3ccc([n-]3)c2-c2ccncc2)C=C1.[Zn+2]	> 100	> 100	> 100	> 100	> 100		> 100	> 100	> 100	> 100										
COC(=O)C1=C(CO)C2C=CC1C2 (centres undefined)	> 100	> 100	> 100	> 100	> 100		> 100	> 100	> 100	> 100										
Nc1c(-c2ccc(Cl)cc2Cl)[n+]([O-])c2ccccc2[n+]1[O-]	> 100	> 100	> 100	> 100	> 100		> 100	> 100	> 100	> 100										
Cc1cc(Cl)ccc1N=C1NC(=O)C(CC(=O)Nc2ccc(Cl)cc2Cl)S1 (centres undefined)	> 100	> 100	> 100	> 100	> 100		> 100		> 100	> 100										
CC1C=CC(=O)C(n2cc(F)c(=O)[nH]c2=O)O1 (centres undefined)	30	70.8	24.2	36.7	36.8		35.8	47.9	30											
NCCC(O)(P(=O)(O)O)P(=O)(O)O	> 100	> 100		> 100	> 100	> 100	> 100	> 100	> 100	> 100	> 100	> 100	> 100	> 100	36	> 100	> 100	> 100	> 100	
O=C(Nc1c(O)[nH]c(=S)[nH]c1=O)c1ccc2ccccc2n1	> 100	> 100	> 100	> 100	> 100	> 100	> 100	> 100	> 100											
O=C1CCC2(CC1)SCCCS2	> 100	> 100	> 100	> 100	> 100		> 100	> 100	> 100	> 100										
O=[N+]([O-])c1nccn1COCCF	> 100	> 100	> 100	> 100	> 100	> 100	> 100	> 100	> 100											
COc1cc2nc(Nc3cccc(F)c3)nc(Nc3cc(C)[nH]n3)c2cc1OC	3.64		3.19	3.22	3.17	8.36	2.84	4.46	3.29	3.28	1.87		1.64	1.77	1.78	2.27	1.44	1.8	1.93	1.76
C=C(C)[C@@H]1CC[C@]2(C)[C@H](CC[C@@H]3[C@H]4[C@H]5OC[C@@]4(CCC5(C)C)CC[C@]32C)[C@@]1(C)CCCN	3.73	3.37	3	3.58	3.23		3.55		2.76	2.91	1.88	1.69	1.79	1.42	1.84		1.91	1.49		1.62
CCOC(=O)c1sc(Nc2ccc(Cl)cc2)nc1C	4.67	5.45	6.51	3.32	3.88		2.76	7.17	2.5	3.34	2.11	2.17	1.56	1.15	1.68		1.44	1.75	3.16	2.09
CC12CCC[C@@](C)(C(=O)OC3OC(CO)C(O)C(O)C3O)[C@H]1CCC13CC4CC(OC4(CO)[C@H]1O)[C@@H]23 (some centres undefined)	> 100	> 100	> 100	> 100	> 100	> 100	> 100		> 100	> 100										
CN(C)CCNC(=O)c1cccc2[nH]c(-c3ccccc3)nc12	30.6	31.7	92.9	31.1	33.3		28.4	54.3	27.7	29.1										
CC(C)(C)C(=O)C1CC(=O)c2ccccc2C1=O (centres undefined)	46.1	> 100	84.7	> 100	> 100		72.8	43.6	67.8	> 100										
NCCNC(=S)S	> 100	> 100	> 100	> 100	> 100		> 100	> 100	> 100	> 100										
O=C1OC(O)C(Oc2ccc(Cl)cc2)=C1Cl (centres undefined)	> 100	> 100	> 100	> 100	> 100			> 100	> 100	> 100										
